One assay concerns the target T1, FLT3 (Homo sapiens, UniProt P36888).
T1 sequence (P36888 27-993): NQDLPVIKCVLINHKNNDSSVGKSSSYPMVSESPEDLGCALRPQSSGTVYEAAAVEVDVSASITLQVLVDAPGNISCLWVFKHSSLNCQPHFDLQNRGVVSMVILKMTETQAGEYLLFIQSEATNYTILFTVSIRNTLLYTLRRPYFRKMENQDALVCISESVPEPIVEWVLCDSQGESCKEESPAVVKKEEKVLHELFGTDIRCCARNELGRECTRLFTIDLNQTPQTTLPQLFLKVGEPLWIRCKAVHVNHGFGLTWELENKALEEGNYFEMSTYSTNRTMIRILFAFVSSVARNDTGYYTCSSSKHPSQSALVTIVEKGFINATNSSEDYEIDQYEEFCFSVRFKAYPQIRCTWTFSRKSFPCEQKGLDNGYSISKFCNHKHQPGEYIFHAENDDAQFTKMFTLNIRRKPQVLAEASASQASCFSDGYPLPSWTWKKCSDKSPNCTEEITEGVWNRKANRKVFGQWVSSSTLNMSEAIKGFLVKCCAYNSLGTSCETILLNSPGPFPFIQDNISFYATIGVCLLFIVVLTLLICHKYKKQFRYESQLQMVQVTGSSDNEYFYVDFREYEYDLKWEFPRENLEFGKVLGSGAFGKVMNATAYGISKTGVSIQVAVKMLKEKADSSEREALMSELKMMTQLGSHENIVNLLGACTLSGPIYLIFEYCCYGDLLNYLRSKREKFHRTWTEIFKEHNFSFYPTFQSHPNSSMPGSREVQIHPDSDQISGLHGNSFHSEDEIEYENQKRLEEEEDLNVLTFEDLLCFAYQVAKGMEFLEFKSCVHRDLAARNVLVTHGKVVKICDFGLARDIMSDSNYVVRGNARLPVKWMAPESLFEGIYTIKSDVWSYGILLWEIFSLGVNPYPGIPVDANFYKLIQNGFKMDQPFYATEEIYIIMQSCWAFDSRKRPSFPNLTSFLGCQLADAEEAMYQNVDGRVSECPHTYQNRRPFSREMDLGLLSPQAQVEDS
Put plainly: TR-FRET kinase activity assay, FLT3. Type of assay: biochemical. Conditions: ATP at Km, 60 minutes. The method in brief: (§1)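 Recombinant human kinases, fluorescent peptide substrate, ATP at Km; 1 h RT, pH 7.5. EDTA-quenched, Eu antibody added, TR-FRET read; IC50 determined.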

The target in the next assay is T2, MERTK (Homo sapiens, UniProt Q12866).
T2 sequence (Q12866 21-999): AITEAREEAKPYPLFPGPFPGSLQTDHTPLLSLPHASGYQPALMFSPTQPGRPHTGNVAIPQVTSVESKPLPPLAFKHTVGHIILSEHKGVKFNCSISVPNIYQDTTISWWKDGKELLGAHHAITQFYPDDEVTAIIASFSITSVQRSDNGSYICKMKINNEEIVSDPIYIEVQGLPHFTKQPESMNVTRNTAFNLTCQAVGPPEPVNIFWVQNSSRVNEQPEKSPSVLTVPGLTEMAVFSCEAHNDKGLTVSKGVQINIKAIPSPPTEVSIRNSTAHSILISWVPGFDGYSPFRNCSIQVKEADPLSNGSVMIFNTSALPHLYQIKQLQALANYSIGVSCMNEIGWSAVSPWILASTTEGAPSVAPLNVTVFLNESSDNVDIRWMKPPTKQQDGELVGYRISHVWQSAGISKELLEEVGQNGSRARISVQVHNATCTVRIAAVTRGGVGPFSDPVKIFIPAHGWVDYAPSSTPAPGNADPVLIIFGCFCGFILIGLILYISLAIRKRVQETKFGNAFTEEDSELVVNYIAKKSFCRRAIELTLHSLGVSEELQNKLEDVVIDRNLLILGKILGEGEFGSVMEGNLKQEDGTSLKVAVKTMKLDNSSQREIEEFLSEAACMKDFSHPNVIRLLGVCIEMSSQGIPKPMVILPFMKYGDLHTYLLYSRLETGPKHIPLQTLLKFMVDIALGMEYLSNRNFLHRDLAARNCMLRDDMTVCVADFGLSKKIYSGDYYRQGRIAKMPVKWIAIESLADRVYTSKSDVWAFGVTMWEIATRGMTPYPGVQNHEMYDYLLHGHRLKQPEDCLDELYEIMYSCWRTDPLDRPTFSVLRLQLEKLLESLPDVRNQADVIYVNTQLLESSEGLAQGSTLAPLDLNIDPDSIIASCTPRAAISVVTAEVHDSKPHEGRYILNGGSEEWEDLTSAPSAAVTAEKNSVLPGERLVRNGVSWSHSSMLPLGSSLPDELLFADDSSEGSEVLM
Put plainly: TR-FRET kinase activity assay, MERTK. The class given is biochemical. Conditions: for pIC50: TR-FRET activity assay, ATP at Km, 60 minutes, read-out: Mer IC50; for FLT3/Mer ratio (FLT3 IC50/Mer IC50): ratio of Mer to FLT3: FLT3 IC50/Mer IC50. The method in brief: as §1

The structures appear in SMILES notation. pIC50: −log10 of the molar value.

Regarding `CCCCC[C@H](C)Nc1ncc2c([C@H]3CC[C@H](C(=O)N4CCOCC4)CC3)cc([C@H]3CC[C@H](O)CC3)n2n1` [Compound 108], the pIC50 against FLT3 is 6.00 to 7.00; on MERTK, at least 7.00. Moreover, at MERTK, the “FLT3/Mer ratio (FLT3 IC50/Mer IC50)” value is on record as “+++ (“+++” represents a ratio of >100)”.
The corresponding values for `COC[C@H](C)Nc1ncc2c(-c3cncc(CN4CCOCC4)c3)cc([C@H]3CC[C@H](O)CC3)n2n1` [Compound 219] are 5.00 to 6.00, at least 7.00 and “+++ (“+++” represents a ratio of >100)”.
For the compound `CC(CCOC(F)F)Nc1ncc2c(-c3ccc(CN4CCOCC4)cc3)cc(C3CCC(O)CC3)n2n1` (stereo not drawn) [Compound 255], on FLT3, the pIC50 was at least 7.00. Also, on MERTK, the pIC50 is at least 7.00; the “FLT3/Mer ratio (FLT3 IC50/Mer IC50)” value is “++ (“++” represents a ratio of between 10 and 100)”.
Take `COC[C@H](C)Nc1ncc2c(-c3cncc(C(=O)N4CCN(C)CC4)c3)cc([C@H]3CC[C@H](O)CC3)n2n1` [Compound 234]: the pIC50 against FLT3 is 5.00 to 6.00; at MERTK, at least 7.00. On MERTK, the “FLT3/Mer ratio (FLT3 IC50/Mer IC50)” value is reported as “+++ (“+++” represents a ratio of >100)”.
As for `Cc1cc(-c2cc([C@H]3CC[C@H](O)CC3)n3nc(N[C@@H](C)COC(C)C)ncc23)ccn1` [Compound 215], the pIC50 against FLT3 was 5.00 to 6.00; at MERTK, at least 7.00. The “FLT3/Mer ratio (FLT3 IC50/Mer IC50)” value on MERTK is “+++ (“+++” represents a ratio of >100)”.
`C[C@@H](CC(F)(F)F)Nc1ncc2c(-c3cnn(C4COC4)c3)cc([C@H]3CC[C@H](O)CC3)n2n1` [Compound 269] showed a pIC50 at FLT3 of at least 7.00. Besides, at MERTK, the negative logarithm of the IC50 (pIC50) was at least 7.00; the “FLT3/Mer ratio (FLT3 IC50/Mer IC50)” value was “++ (“++” represents a ratio of between 10 and 100)”.
Regarding `Cc1cc(-c2cc([C@H]3CC[C@H](O)CC3)n3nc(N[C@@H](C)CC(F)(F)F)ncc23)ccn1` [Compound 213], on FLT3, the negative-log IC50 (pIC50) is at least 7.00. Also, at MERTK, the negative logarithm of the IC50 (pIC50) is at least 7.00 and the “FLT3/Mer ratio (FLT3 IC50/Mer IC50)” value is recorded as “+++ (“+++” represents a ratio of >100)”.
For the compound `COC[C@H](C)Nc1ncc2c(-c3cnnc(C)c3)cc([C@H]3CC[C@H](O)CC3)n2n1` [Compound 267], the pIC50 at FLT3 is 5.00 to 6.00; on MERTK it was at least 7.00. The “FLT3/Mer ratio (FLT3 IC50/Mer IC50)” value on MERTK is given as “+++ (“+++” represents a ratio of >100)”.
The corresponding values for `COC[C@H](C)Nc1ncc2c(-c3cnn(CCC#N)c3)cc([C@H]3CC[C@H](O)CC3)n2n1` [Compound 222] are 6.00 to 7.00, at least 7.00 and “+++ (“+++” represents a ratio of >100)”.
The corresponding values for `CCCCC[C@H](C)Nc1ncc2c(NC3CCN(C)CC3)cc([C@H]3CC[C@H](O)CC3)n2n1` [Compound 107] are 6.00 to 7.00, at least 7.00 and “+++ (“+++” represents a ratio of >100)”.
Compound `CCCCCC(C)Nc1ncc2c(C3=CCC(C(=O)N4CCOCC4)CC3)cc(C3CCC(O)CC3)n2n1` (mixture of isomers) [Compound 110] gave a pIC50 against FLT3 of 6.00 to 7.00. On MERTK, the negative-log IC50 (pIC50) is at least 7.00; the “FLT3/Mer ratio (FLT3 IC50/Mer IC50)” value is “++ (“++” represents a ratio of between 10 and 100)”.
As for `COC[C@H](C)Nc1ncc2c(-c3cncc(F)c3)cc([C@H]3CC[C@H](O)CC3)n2n1` [Compound 195], the pIC50 against FLT3 was 5.00 to 6.00. Also, at MERTK, the pIC50 was at least 7.00 and the “FLT3/Mer ratio (FLT3 IC50/Mer IC50)” value was “+++ (“+++” represents a ratio of >100)”.
At FLT3, `COCC[C@@H](C)Nc1ncc2c(-c3ccc(CN4CCOCC4)cc3)cc([C@H]3CC[C@H](O)CC3)n2n1` [Compound 212] gave a negative-log IC50 (pIC50) of 5.00 to 6.00. At MERTK, the pIC50 was at least 7.00; the “FLT3/Mer ratio (FLT3 IC50/Mer IC50)” value is “++ (“++” represents a ratio of between 10 and 100)”.
`COC[C@H](C)Nc1ncc2c(-c3cncc(C(=O)N4CCCC4)c3)cc([C@H]3CC[C@H](O)CC3)n2n1` [Compound 232] had a pIC50 against FLT3 of 5.00 to 6.00. For the same compound, at MERTK, the pIC50 was at least 7.00 and the “FLT3/Mer ratio (FLT3 IC50/Mer IC50)” value was “+++ (“+++” represents a ratio of >100)”.
The corresponding values for `COC[C@H](C)Nc1ncc2c(-c3ccc(C(=O)NC(C)C)nc3)cc([C@H]3CC[C@H](O)CC3)n2n1` [Compound 228, 5-(7-((1r,4S)-4-hydroxycyclohexyl)-2-(((S)-1-methoxypropan-2-yl)amino)pyrrolo[2,1-f][1,2,4]triazin-5-yl)-N-isopropylpicolinamide] are 5.00 to 6.00, at least 7.00 and “+++ (“+++” represents a ratio of >100)”.
The corresponding values for `COC[C@H](C)Nc1ncc2c(-c3ccn(C)n3)cc([C@H]3CC[C@H](O)CC3)n2n1` [Compound 208] are 5.00 to 6.00, at least 7.00 and “+++ (“+++” represents a ratio of >100)”.
For the compound `COCCn1cc(-c2cc([C@H]3CC[C@H](O)CC3)n3nc(N[C@@H](C)CC(F)(F)F)ncc23)cn1` [Compound 262], the pIC50 against FLT3 and at MERTK was at least 7.00 throughout. The “FLT3/Mer ratio (FLT3 IC50/Mer IC50)” value on MERTK is reported as “+++ (“+++” represents a ratio of >100)”.
At FLT3, `CCCCC[C@H](C)Nc1ncc2c(-c3ccc(CN4CCN(C)CC4)cc3)cc([C@H]3CC[C@H](O)CC3)n2n1` [Compound 104] gave a pIC50 of 6.00 to 7.00. Besides, at MERTK, the pIC50 is at least 7.00; the “FLT3/Mer ratio (FLT3 IC50/Mer IC50)” value was “++ (“++” represents a ratio of between 10 and 100)”.
`CNC(=O)c1cncc(-c2cc([C@H]3CC[C@H](O)CC3)n3nc(N[C@@H](C)COC)ncc23)c1` [Compound 245] had a pIC50 against FLT3 of 5.00 to 6.00. On MERTK, the negative-log IC50 (pIC50) is at least 7.00 and the “FLT3/Mer ratio (FLT3 IC50/Mer IC50)” value is recorded as “+++ (“+++” represents a ratio of >100)”.
The corresponding values for `COCC(C)Nc1ncc2c(-c3cnn(C4COC4)c3)cc(C3CCC(O)CC3)n2n1` (stereo not drawn) [Compound 221] are 6.00 to 7.00, at least 7.00 and “+++ (“+++” represents a ratio of >100)”.
Taken in the same sequence, the figures for `COCC(C)Nc1ncc2c(-c3cccc(C)n3)cc(C3CCC(O)CC3)n2n1` (stereo not drawn) [Compound 253] were 5.00 to 6.00, at least 7.00 and “+++ (“+++” represents a ratio of >100)”.
With `C[C@@H](CC1CC1)Nc1ncc2c(-c3ccc(CN4CCN(C)CC4)cc3)cc([C@H]3CC[C@H](O)CC3)n2n1` [Compound 216], at FLT3, the pIC50 was at least 7.00. Moreover, on MERTK, the pIC50 was at least 7.00; the “FLT3/Mer ratio (FLT3 IC50/Mer IC50)” value was “++ (“++” represents a ratio of between 10 and 100)”.
`COC[C@H](C)Nc1ncc2c(-c3ccc(C(=O)N4CCOCC4)nc3)cc([C@H]3CC[C@H](O)CC3)n2n1` [Compound 227] gave a pIC50 against FLT3 of 5.00 to 6.00. Further, on MERTK, the pIC50 is at least 7.00 and the “FLT3/Mer ratio (FLT3 IC50/Mer IC50)” value was “+++ (“+++” represents a ratio of >100)”.

The values above are taken from patent publication US11040981B2, “Pyrrolotriazine compounds and methods of inhibiting TAM kinases” (Syros Pharmaceuticals, Inc., priority 2017, dated 2021).
